Experimental data: paper PMC10343272, “Synthesis and Evaluation of ^99mTc-Labeled PSMA-Targeted Tracers Based on the Lys-Urea-Aad Pharmacophore for Detecting Prostate Cancer with Single Photon Emission Computed Tomography” (Molecules, 2023)
Where two headings read alike, the source gives them in different places.

Key:
PSMA [1] = target: T1, PSMA (Homo sapiens, UniProt Q04609); experiment: In vitro competition binding assay ([^18F]DCFPyL displacement on LNCaP cells); conditions: inhibition of [^18F]DCFPyL binding to PSMA-expressing LNCaP cells, n = 3
T1 construct: host or cells: LNCaP cells
Protocol: All tested PSMA-targeted ligands inhibited the binding of [^18F]DCFPyL to PSMA-expressing LNCaP cells in a concentration-dependent manner (Figure 2, n = 3).
The in vitro competition binding assays were performed following our previously published procedures. Briefly, LNCaP cells in RMPI medium with FBS, penicillin, and streptomycin were plated onto 24-well poly-D-lysine coated plates at 200,000 cells/well 48 h prior to binding assay. The growth medium was removed and the cells were rinsed with HEPES-buffered saline (50 mM HEPES, pH 7.5, 0.9% NaCl) two times before 400 µL of HEPES buffer were added to each well. Varying concentrations of PSMA-targeted ligands (50 µL) were added to each well in triplicate before adding 0.1 nmol/50 µL of [^18F]DCFPyL. After the additions, plates were incubated and swirled at 37 °C. After 1 h incubation, the solutions were removed, and cells were washed with HEPES-buffered saline twice. Finally, 400 µL of 0.25% trypsin solution were added to each well. After 10 min incubation, cells were collected for counting using a PerkinElmer (Waltham, MA, USA) Wizard2 2480 automatic gamma counter. The Ki values were analyzed with GraphPad (San Diego, CA, USA) Prism 7 software using nonlinear regression fit.

PSMA [2] = target: T1, PSMA; conditions: previous observation; cited from earlier work

T1 sequence (Q04609 whole entry): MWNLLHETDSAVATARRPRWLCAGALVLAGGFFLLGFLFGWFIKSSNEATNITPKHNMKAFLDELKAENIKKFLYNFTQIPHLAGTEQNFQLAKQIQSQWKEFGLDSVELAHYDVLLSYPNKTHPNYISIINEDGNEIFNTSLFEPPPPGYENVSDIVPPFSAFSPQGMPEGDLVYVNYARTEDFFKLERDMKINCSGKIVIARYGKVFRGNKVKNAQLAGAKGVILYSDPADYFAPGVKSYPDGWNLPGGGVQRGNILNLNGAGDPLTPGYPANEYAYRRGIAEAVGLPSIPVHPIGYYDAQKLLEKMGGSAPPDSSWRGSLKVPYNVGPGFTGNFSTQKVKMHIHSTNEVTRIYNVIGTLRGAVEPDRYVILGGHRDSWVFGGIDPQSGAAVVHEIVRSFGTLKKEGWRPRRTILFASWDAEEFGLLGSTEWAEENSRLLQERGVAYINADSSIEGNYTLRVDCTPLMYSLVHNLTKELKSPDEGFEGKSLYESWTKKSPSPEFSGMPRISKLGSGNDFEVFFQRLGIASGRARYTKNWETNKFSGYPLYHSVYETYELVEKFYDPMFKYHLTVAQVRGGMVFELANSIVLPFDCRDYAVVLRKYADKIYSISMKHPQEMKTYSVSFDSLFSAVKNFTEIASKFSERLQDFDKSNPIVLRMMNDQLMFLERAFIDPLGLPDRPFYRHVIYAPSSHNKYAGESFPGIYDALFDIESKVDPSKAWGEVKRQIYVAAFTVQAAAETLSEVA

SMILES	Ki (PSMA [1])	Ki (PSMA [2])
NNc1ccc(C(=O)NC[C@H]2CC[C@H](C(=O)N[C@@H](Cc3c4ccccc4cc4ccccc34)C(=O)NCCCC[C@H](NC(=O)N[C@@H](CCCC(=O)O)C(=O)O)C(=O)O)CC2)cn1 [HTK03180]	11.6 ± 1.5 nM	–
NNc1ccc(C(=O)N[C@@H](Cc2ccc3ccccc3c2)C(=O)NCCCC[C@H](NC(=O)N[C@@H](CCC(=O)O)C(=O)O)C(=O)O)cn1 [HYNIC-iPSMA, reference compound]	3.11 nM	–
O=C(O)CCC[C@H](NC(=O)N[C@@H](CCCCNC(=O)[C@H](Cc1c2ccccc2cc2ccccc12)NC(=O)[C@H]1CC[C@H](CNC(=O)CN2CCN(CC(=O)O)CCN(CC(=O)O)CCN(CC(=O)O)CC2)CC1)C(=O)O)C(=O)O [HTK03149]	–	6.99 nM
NNc1ccc(C(=O)N[C@@H](Cc2ccc3ccccc3c2)C(=O)NCCCC[C@H](NC(=O)N[C@@H](CCCC(=O)O)C(=O)O)C(=O)O)cn1 [KL01127]	8.96 ± 0.58 nM	–
NNc1ccc(C(=O)NC[C@H]2CC[C@H](C(=O)N[C@@H](Cc3c4ccccc4cc4ccccc34)C(=O)NCCCC[C@H](NC(=O)N[C@@H](CCC(=O)O)C(=O)O)C(=O)O)CC2)cn1 [KL01099]	10.7 nM	–
